Measured values as given in PubChem BioAssay (NCI).
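The compound was tested at five concentrations on cells cultured in 96-well plates, with a 48-hour exposure period. At the GI50, growth is halved. Definition used: TGI = concentration required for complete inhibition of growth.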

Assays:
Assay in all cases: growth of human tumour cells (NCI), 48 h
SK-MEL-28 melanoma = system: SK-MEL-28 melanoma
HOP-62 NSCLC = system: HOP-62 NSCLC
NCI-H226 lung = system: NCI-H226 lung
SK-MEL-5 melanoma = system: SK-MEL-5 melanoma
HCC-2998 colon = system: HCC-2998 colon
HL-60(TB) leukemia = system: HL-60(TB) leukemia
OVCAR-3 ovarian = system: OVCAR-3 ovarian
SN12C renal = system: SN12C renal
MDA-MB-231 breast = system: MDA-MB-231 breast
TK-10 renal = system: TK-10 renal
T-47D breast = system: T-47D breast
OVCAR-8 ovarian = system: OVCAR-8 ovarian
IGROV1 ovarian = system: IGROV1 ovarian
K-562 leukemia = system: K-562 leukemia
U251 CNS = system: U251 CNS
CCRF-CEM leukemia = system: CCRF-CEM leukemia
MALME-3M melanoma = system: MALME-3M melanoma
MCF7 breast = system: MCF7 breast
A549 NSCLC = system: A549 NSCLC
KM12 colon = system: KM12 colon
SW-620 colon = system: SW-620 colon
NCI-H460 lung = system: NCI-H460 lung
MDA-MB-435 = system: MDA-MB-435
CAKI-1 renal = system: CAKI-1 renal
COLO 205 colon = system: COLO 205 colon
A498 renal = system: A498 renal
LOX IMVI melanoma = system: LOX IMVI melanoma
UACC-62 melanoma = system: UACC-62 melanoma
RXF 393 renal = system: RXF 393 renal
PC-3 prostate = system: PC-3 prostate
MOLT-4 leukemia = system: MOLT-4 leukemia
ACHN renal = system: ACHN renal
NCI-H23 lung = system: NCI-H23 lung
SNB-75 CNS = system: SNB-75 CNS
HS 578T breast = system: HS 578T breast
SF-295 CNS = system: SF-295 CNS
OVCAR-5 ovarian = system: OVCAR-5 ovarian
OVCAR-4 ovarian = system: OVCAR-4 ovarian
HCT-15 colon = system: HCT-15 colon
SK-MEL-2 melanoma = system: SK-MEL-2 melanoma
RPMI-8226 leukemia = system: RPMI-8226 leukemia
HOP-92 NSCLC = system: HOP-92 NSCLC
SK-OV-3 ovarian = system: SK-OV-3 ovarian
786-0 renal = system: 786-0 renal
SNB-19 CNS = system: SNB-19 CNS
HT29 colon = system: HT29 colon
M14 melanoma = system: M14 melanoma
SF-539 CNS = system: SF-539 CNS
BT-549 breast = system: BT-549 breast
HCT-116 colon = system: HCT-116 colon
SR leukemia = system: SR leukemia
NCI/ADR-RES ovarian = system: NCI/ADR-RES ovarian
NCI-H522 lung = system: NCI-H522 lung
UACC-257 melanoma = system: UACC-257 melanoma
UO-31 renal = system: UO-31 renal
EKVX NSCLC = system: EKVX NSCLC
DU-145 prostate = system: DU-145 prostate
SF-268 CNS = system: SF-268 CNS

SMILES: Brc1ccc2[nH]cc(-c3nn4cc(-c5nccs5)nc4s3)c2c1
- GI50 (SK-MEL-28 melanoma): 9.15 µM
- TGI (SK-MEL-28 melanoma): > 59.3 µM
- GI50 (HOP-62 NSCLC): 2.46 µM
- TGI (HOP-62 NSCLC): 11.2 µM
- GI50 (NCI-H226 lung): 2.28 µM
- TGI (NCI-H226 lung): 8.95 µM
- GI50 (SK-MEL-5 melanoma): 3.86 µM
- TGI (SK-MEL-5 melanoma): 18 µM
- GI50 (HCC-2998 colon): 2.65 µM
- TGI (HCC-2998 colon): > 22.3 µM
- GI50 (HL-60(TB) leukemia): 22.8 µM
- TGI (HL-60(TB) leukemia): > 100 µM
- GI50 (OVCAR-3 ovarian): 2.58 µM
- TGI (OVCAR-3 ovarian): 7.62 µM
- GI50 (SN12C renal): 8.1 µM
- TGI (SN12C renal): > 50.9 µM
- GI50 (MDA-MB-231 breast): 1.82 µM
- TGI (MDA-MB-231 breast): 5.04 µM
- GI50 (TK-10 renal): 9.55 µM
- TGI (TK-10 renal): 24.2 µM
- GI50 (T-47D breast): 3.19 µM
- TGI (T-47D breast): > 75.7 µM
- GI50 (OVCAR-8 ovarian): 2.53 µM
- TGI (OVCAR-8 ovarian): 6.77 µM
- GI50 (IGROV1 ovarian): 2.58 µM
- TGI (IGROV1 ovarian): 14.6 µM
- GI50 (K-562 leukemia): 2.84 µM
- TGI (K-562 leukemia): 11.9 µM
- GI50 (U251 CNS): 8.49 µM
- TGI (U251 CNS): 21.3 µM
- GI50 (CCRF-CEM leukemia): 3.06 µM
- TGI (CCRF-CEM leukemia): > 40 µM
- GI50 (MALME-3M melanoma): 3.71 µM
- TGI (MALME-3M melanoma): 12.1 µM
- GI50 (MCF7 breast): 3.23 µM
- TGI (MCF7 breast): > 35.5 µM
- GI50 (A549 NSCLC): 2.6 µM
- TGI (A549 NSCLC): 7.52 µM
- GI50 (KM12 colon): 7.16 µM
- TGI (KM12 colon): > 100 µM
- GI50 (SW-620 colon): 6.68 µM
- TGI (SW-620 colon): > 58.1 µM
- GI50 (NCI-H460 lung): 2.51 µM
- TGI (NCI-H460 lung): 7.36 µM
- GI50 (MDA-MB-435): 4.4 µM
- TGI (MDA-MB-435): 20.1 µM
- GI50 (CAKI-1 renal): 2.46 µM
- TGI (CAKI-1 renal): 7.73 µM
- GI50 (COLO 205 colon): 5.31 µM
- TGI (COLO 205 colon): 21.9 µM
- GI50 (A498 renal): 16 µM
- TGI (A498 renal): 32 µM
- GI50 (LOX IMVI melanoma): 2.41 µM
- TGI (LOX IMVI melanoma): 10.3 µM
- GI50 (UACC-62 melanoma): > 57.7 µM
- TGI (UACC-62 melanoma): > 100 µM
- GI50 (RXF 393 renal): 2.32 µM
- TGI (RXF 393 renal): 5.01 µM
- GI50 (PC-3 prostate): 2.36 µM
- TGI (PC-3 prostate): 10.8 µM
- GI50 (MOLT-4 leukemia): 2.58 µM
- TGI (MOLT-4 leukemia): > 100 µM
- GI50 (ACHN renal): 2.39 µM
- TGI (ACHN renal): 7.4 µM
- GI50 (NCI-H23 lung): 2.49 µM
- TGI (NCI-H23 lung): 10.2 µM
- GI50 (SNB-75 CNS): 1.79 µM
- TGI (SNB-75 CNS): 7.94 µM
- GI50 (HS 578T breast): 4.88 µM
- TGI (HS 578T breast): > 64 µM
- GI50 (SF-295 CNS): 3 µM
- TGI (SF-295 CNS): 9.89 µM
- GI50 (OVCAR-5 ovarian): 5.88 µM
- TGI (OVCAR-5 ovarian): 22.1 µM
- GI50 (OVCAR-4 ovarian): 5.04 µM
- TGI (OVCAR-4 ovarian): 14.9 µM
- GI50 (HCT-15 colon): 3.25 µM
- TGI (HCT-15 colon): > 34.7 µM
- GI50 (SK-MEL-2 melanoma): 28.6 µM
- TGI (SK-MEL-2 melanoma): > 100 µM
- GI50 (RPMI-8226 leukemia): 2.25 µM
- TGI (RPMI-8226 leukemia): 9.84 µM
- GI50 (HOP-92 NSCLC): 1.77 µM
- TGI (HOP-92 NSCLC): 4.56 µM
- GI50 (SK-OV-3 ovarian): 10.3 µM
- TGI (SK-OV-3 ovarian): 26.3 µM
- GI50 (786-0 renal): 2 µM
- TGI (786-0 renal): 4.11 µM
- GI50 (SNB-19 CNS): 6.62 µM
- TGI (SNB-19 CNS): 22.6 µM
- GI50 (HT29 colon): 7.9 µM
- TGI (HT29 colon): > 69.1 µM
- GI50 (M14 melanoma): 3.58 µM
- TGI (M14 melanoma): 16.1 µM
- GI50 (SF-539 CNS): 3.14 µM
- TGI (SF-539 CNS): 12.2 µM
- GI50 (BT-549 breast): 3.22 µM
- TGI (BT-549 breast): 11.8 µM
- GI50 (HCT-116 colon): 1.82 µM
- TGI (HCT-116 colon): 3.44 µM
- GI50 (SR leukemia): 5.21 µM
- TGI (SR leukemia): > 50.7 µM
- GI50 (NCI/ADR-RES ovarian): 2.28 µM
- TGI (NCI/ADR-RES ovarian): 7.1 µM
- GI50 (NCI-H522 lung): 9.76 µM
- TGI (NCI-H522 lung): 36.9 µM
- GI50 (UACC-257 melanoma): 10.5 µM
- TGI (UACC-257 melanoma): > 62.5 µM
- GI50 (UO-31 renal): 1.73 µM
- TGI (UO-31 renal): 6.57 µM
- GI50 (EKVX NSCLC): 4.45 µM
- TGI (EKVX NSCLC): > 56.7 µM
- GI50 (DU-145 prostate): 5.39 µM
- TGI (DU-145 prostate): 17.7 µM
- GI50 (SF-268 CNS): 7.98 µM
- TGI (SF-268 CNS): 68.9 µM
